Experimental findings from patent EP0801071A1, “LEWIS X DERIVATIVE AND PROCESS FOR PRODUCING THE SAME” (SUMITOMO PHARMACEUTICALS COMPANY, LIMITED, priority 1994, dated 1996) are described below.

Assay [1] relates to adhesion of HUVEC to neutrophils. Put plainly: Inhibition of adhesion of neutrophils (treated with anti-CD18 antibody) to IL-1β-stimulated HUVEC (Experiment 1). The settings on record: at a concentration of 0.05-0.5mM; wells without compound = 100%. The class given is cell-based, human. As to the method: To each well of a 96 well plate was added a PBS solution containing 0.1% gelatine at 50 µl/well, and after 15 minutes at room temperature, the solution was removed with a Pasteur pipette. On the coated 96 well plate, human umbilical vein endothelial cells (HUVEC, 5th generation) were cultured until confluent. The culture medium was removed with a Pasteur pipette and the MEM medium containing 45 U/ml of IL-1β was added at 100 µl/well, and incubated for 4 hours. On the same plate, wells containing the MEM medium without IL-1β were prepared and similarly incubated for 4 hours.
Blood was collected from a healthy human using heparin as an anticoagulant. In a 50 ml-tube was placed 15 ml of neutrophil·monocyte fraction, and 25 ml of whole blood was gently layered. The brake function was released and centrifuged at 1700 rpm for 30 minutes at room temperature, and the neutrophil layer was collected and transferred into a 50 ml tube containing 30 ml of HBSS solution. The brake function was recovered and centrifuged at 3000 rpm for 3 minutes at room temperature, the supernatant was removed, and 30 ml of HBSS was added for resuspension. This procedure was repeated twice. The neutrophils were counted using hemocytometer, adjusted to 5×10^6 cells/ml with the HBSS solution, charged in a 15 ml tube, mixed with anti-CD18 antibody at final concentration of 10 µg/ml, and incubated for 1 hour with occasional gentle swirling.
MEM medium was removed from the HUVEC plate with a Pasteur pipette, a compound of the present invention diluted with MEM medium at 50 µl/well was added, and incubated for 20 minutes.
The neutrophils treated with anti-CD18 antibody were added to the HUVEC plate at 25 µl/well, and incubated for 5 minutes. […]
The OD490 of each well was determined, and the OD490 value of wells containing MEM medium without IL-1β was subtracted from that of each well. The value found in wells containing none of the compounds of the present invention was set to be 100% and the […] of the compound of the invention was assessed as shown in Figure 1. […]

For the next assay, the target named is T1, rsE-selectin (Homo sapiens, UniProt P16581).
T1 sequence (P16581 22-556 limits assumed): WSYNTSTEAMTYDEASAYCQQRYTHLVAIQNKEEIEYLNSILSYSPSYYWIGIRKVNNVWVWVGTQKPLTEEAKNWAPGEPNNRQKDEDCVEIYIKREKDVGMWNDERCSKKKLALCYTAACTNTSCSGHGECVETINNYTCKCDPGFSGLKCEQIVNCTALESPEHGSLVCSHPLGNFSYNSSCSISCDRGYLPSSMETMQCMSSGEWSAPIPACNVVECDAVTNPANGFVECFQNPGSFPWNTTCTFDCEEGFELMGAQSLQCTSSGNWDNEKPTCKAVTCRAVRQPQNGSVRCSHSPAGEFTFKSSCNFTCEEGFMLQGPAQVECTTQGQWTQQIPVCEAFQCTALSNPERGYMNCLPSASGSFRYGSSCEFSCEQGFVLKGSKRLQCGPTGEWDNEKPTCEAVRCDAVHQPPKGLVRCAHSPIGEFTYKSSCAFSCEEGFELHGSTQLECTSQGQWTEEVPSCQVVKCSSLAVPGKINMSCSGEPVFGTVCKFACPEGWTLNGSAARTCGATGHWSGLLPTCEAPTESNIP
Put plainly: Inhibition of adhesion of HL-60 cells to plate-coated rsE-selectin (Experiment 2). The settings on record: 50% inhibition concentration of adhesion of rsE-selectin to HL-60, from inhibition curves; medium-only well = 100%. Format: cell-based. Here is the method:
The DPBS solution containing rsE-selectin (3 µg/ml) was added to a 96 well plate at 50 µl/well, while wells filled with DPBS without rsE-selectin (non-specific adhesion control) were prepared on the same plate, and the plate was kept at room temperature for 3 hours. Then wells were washed 3 times with a DPBS/BSA solution at 200 µl/well, and DPBS/BSA solution was added at 200 µl/well, and the plate was kept at room temperature for 1 hour. After removing DPBS/BSA solution, a medium containing NWB or NWB plus a compound of the invention was added at 40 µl/well.
Frozen HL-60 cells were thawed promptly at 37°C, and washed with NWB cooled to 4°C 3 times by centrifugation at 1500rpm × 5 min. The cells were adjusted with NWB to 1×10^7 cells/ml, added to the plate at 20 µl/well, and the plate was kept at room temperature for 15 min.
The plate was set on a plate washer to remove nonadhesive HL-60 cells. The plate washer was set at slow mode, cycle 3 (washing 3 times), soak 0 sec., 12 rows (along vertical direction), and volume of NWB for 1 washing 200 µl/well at room temperature.
A citrate solution containing 0.1% NP-40 at room temperature was added at 50 µl/well, and the plate was kept at room temperature for 5 minutes. The substrate solution (4 mg OPDA, 4µl 30% H2O2/4 ml citrate) was added at 50 µl/well, protected from light with aluminum foil, allowed to develop color for 5 to 20 minutes, and the reaction was terminated by adding 4N-H2SO4 at 50µl/well. The substrate solution was used within 30 minutes after preparation.
The OD490 of each well was determined, and the OD490 value of the well for nonspecific adhesion was subtracted from the value of each well. The value found in a well containing only the medium was used as a control (100%) and the amount of adhesion in wells containing Compounds (15), (31), (33)-(40) or (41) of the invention was calculated by percent in terms of the values of the control. By drawing inhibition curves, 50% inhibition concentration (IC50) was determined.
The materials for the experiment were obtained from the following sources. rsE-selectin: producible by the method described in J. C. Poulson, J. Am. Chem. Soc., 117: 66-79 (1995). The sample of rsE-selectin used in the experiments was kindly supplied by the author. HL-60 : ATCC Corp. DPBS (Dulbecco Phosphate Buffered Saline) : GIBCO Corp. BSA (Bovine Serum Albumin) : Sigma Corp. HBSS (Hanks Balanced Salt Solution) : GIBCO Corp. OPDA (Ortho-phenylenediamine) : Sigma Corp. RPMI 1640 medium : GIBCO Corp. Bovine Fetal Serum : GIBCO Corp. Plate : Immulon. 2. (flat bottomed) : Dynatech Laboratories. Plate washer; Microplate Washer : Molecular Devices Corp.
A compound of the present invention was adjusted to 100mM with DPBS, and pH was adjusted to 7.1-7.4.
HL-60 was cultured in RPMI 1640 medium supplemented with 10% Bovine Fetal Serum. Using a cell freezing solution consisting of 80% RPMI 1640 medium + 10% Bovine Fetal Serum + 10% DMSO, HL-60 was frozen at 1.5 × 10^7 cells per a tube according to a conventional method, and stocked at -80°C. This was used under sterile condition.
Composition of DPBS/BSA was DPBS + 1% BSA.
Composition of NWB was HBSS + 10mM-HEPES + 0.2%glucose + 1%BSA+ 1mM-CaCl2. These two solutions are prepared under sterile condition.
The citrate solution was prepared by dissolving 2.33 g of citric acid and 9.20 g of Na2HPO4·12H2O in 500 ml of desalted water.

For the molecule `COc1cc(CO[C@@H]2O[C@H](CO)[C@@H](O[C@@H]3O[C@H](CO)[C@H](O)[C@H](O[C@]4(C(=O)O)C[C@H](O)[C@@H](NC(C)=O)[C@H]([C@H](O)[C@H](O)CO)O4)[C@H]3O)[C@H](O[C@@H]3O[C@@H](C)[C@@H](O)[C@@H](O)[C@@H]3O)[C@H]2NC(=O)c2ccc3ccccc3c2)cc(OC)c1OC` [Compound 15, 3,4,5-trimethoxybenzyl (5-acetamido-3,5-dideoxy-α-D-glycero-D-galacto-2-nonulopyra nosylonic acid)-(2→3)-O-(β-D-galacto-pyranosyl)-(1→4)-O-[α-L-fucopyranosyl-(1→3)-O]-(2-deoxy-2-naphthamido-β-D-glucopyranoside)], the “inhibited the adhesion of HUVEC to neutrophils” value in assay [1] is no less than 50%. Besides, the IC50 against rsE-selectin is 110 µM.
The corresponding values for `CCOCCOCCO[C@@H]1O[C@H](CO)[C@@H](O[C@@H]2O[C@H](CO)[C@H](O)[C@H](O[C@]3(C(=O)O)C[C@H](O)[C@@H](NC(C)=O)[C@H]([C@H](O)[C@H](O)CO)O3)[C@H]2O)[C@H](O[C@@H]2O[C@@H](C)[C@@H](O)[C@@H](O)[C@@H]2O)[C@H]1NC(=O)c1ccc2ccccc2c1` [Compound 31, 2-(2-Ethoxyethoxy)ethyl (5-acetamido-3,5-dideoxy-α-D-glycero-D-galacto-2-nonulopyranosylonic acid)-(2→3)-O-(β-D-galactopyranosyl)-(1→4)-O-[α-L-fucopyranosyl-(1→3)-O]-(2-deoxy-2-naphthamido-β-D-glucopyranoside)] are no less than 50% and 110 µM.
The corresponding values for `CC(=O)N[C@H]1[C@H]([C@H](O)[C@H](O)CO)O[C@@](O[C@H]2[C@@H](O)[C@@H](CO)O[C@@H](O[C@H]3[C@H](O[C@@H]4O[C@@H](C)[C@@H](O)[C@@H](O)[C@@H]4O)[C@@H](NC(=O)c4ccc5ccccc5c4)[C@H](OCCCCCCCCCO)O[C@@H]3CO)[C@@H]2O)(C(=O)O)C[C@@H]1O` [Compound 35, 9-Hydroxynonyl (5-acetamido-3,5-dideoxy-α-D-glycero-D-galacto-2-nonulopyranosylonic acid)-(2→3)-O-(β-D-galactopyranosyl)-(1→4)-O-[α-L-fucopyranosyl-(1→3)-O ]-(2-deoxy-2-naphthamido-β-D-glucopyranoside)] are no less than 50% and 50 µM.
